Values quoted from earlier work as cited in patent US20180015074A1, “USE OF MTOR INHIBITORS TO PREVENT AND REGRESS EDHESIONS AND FIBROSIS” (THE BOARD OF REGENTS OF THE UNIVERSITY OF TEXAS SYSTEM, priority 2015, published 2018).
Read-outs that look alike come from different tables or passages of the source.

How the values were obtained:
post-surgical adhesions = conditions: daily IP injection immediately following surgery, rat
[1] = test system: wound strength in the intestine and abdominal fascia

CO[C@H]1C[C@@H]2CC[C@@H](C)[C@@](O)(O2)C(=O)C(=O)N2CCCC[C@H]2C(=O)O[C@H]([C@H](C)C[C@@H]2CC[C@@H](O)[C@H](OC)C2)CC(=O)[C@H](C)/C=C(\C)[C@@H](O)[C@@H](OC)C(=O)[C@H](C)C[C@H](C)/C=C/C=C/C=C/1C [rapamycin, (3S,6R,7E,9R,10R,12R,14S,15E,17E,19E,21S,23S,26R,27R,34aS)-9,10,12,13,14,-21,22,23,24,25,26,27,32,33,34,34a-hexadecahydro-9,27-dihydroxy-3-[(1R)-2-[-(1S,3R,4R)-4-hydroxy-3-methoxycyclohexyl]-1-methylethyl]-10,21-dimethoxy-6,8,12,14,20,26-hexamethyl-23,27-epoxy-3H-pyrido[2,1-c][1,4]oxaazacyclohent-ria-contine-1,5,11,28,29(4H,6H,31H)-pentone]
wound infections (post-surgical adhesions): higher rate of wound infections | wound strength ([1]; administration delayed 2-4 days post-surgery): ameliorated this loss | wound strength ([1]; administration immediately following surgery): serious loss of wound strength
